Data taken from patent publication US9700637B2, “Reaction-based fluorescent probes for detecting zinc” (Massachusetts Institute of Technology, priority 2013, dated 2017).

Assays:
[1] = Octanol/aqueous buffer partition coefficient (modified shake-flask); assay type: physicochemical; conditions: octanol/water, buffered at pH 7 with 10 mM Tris
Source text: To understand better the limitations of TPP in directing fluorophores to mitochondria, we prepared two additional TPP-derivatives, one based on 6-carboxyfluorescein (FL-TPP) and one on coumarin 343 (C343-TPP). […] To test this hypothesis, we conducted live cell fluorescence imaging experiments with FL-TPP. […] Not only did FL-TPP fail to accumulate in mitochondria, it was cell-impermeable under our imaging conditions. In contrast, the cationic C343-TPP strongly colocalized with MitoTracker Red in live HeLa cells (Pearson's r=0.72±0.02). To quantify the effect of hydrophobicity in mitochondrial-targeting, we measured the octanol/aqueous buffer partition coefficient (log P) for our TPP constructs and two MitoTracker dyes. We then tabulated the log P, charge of the predominate species in solution at physiological pH, and cellular localization for each dye (Table 1). […] Along with cationic charge, a minimum level of lipophilicity must be reached in order to evade endo/lysosomal sequestration and enable effective mitochondrial targeting.

[2] = Charge of predominate species in solution at physiological pH; assay type: physicochemical; conditions: physiological pH = 7.4
[3] = tested on: HeLa cells; test: Live cell fluorescence imaging: localization, co-localization and uptake; assay type: cell-based; conditions: fluorescence microscopy, live HeLa cells (Table 1)
Description: FIG. 6 depicts live cell imaging of HeLa cells. 500 nM mitotracker Red was bath-applied along with 1 μM DA-ZP1-TPP for 30 min at 37° C. and 5% CO2. After exposure to 25 μM 1:2 zinc:pyrithione, fluorescent images were acquired and the co-localization of the two sensors was assessed. The calculated Pearson's correlation coefficient (r) was r=0.581±0.097 (n=9), which represents the average of 9 ROIs over three independent plates.
FIG. 14 depicts live cell imaging of HeLa cells. 1 μM Lysotracker Red was bath-applied along with 2 μM ZP1-TPP. The calculated Pearson's correlation coefficient (r) was r=0.45±0.15, which represents the average of 9 ROIs over three independent plates.
FIG. 24 depicts fluorescence images of live HeLa cells. HeLa cells were pretreated with a 1 μM solution of DA-ZP1-TPP in dye- and serum-free medium for 30 min (37° C., 5% CO2). […] The signal from MitoTracker Red (c) correlates well with the signal from the zinc-bound sensor (d). Pearson's r=0.64±0.1 (n=18).
FIG. 27 depicts deconvoluted fluorescence microscopy images of live HeLa cells pretreated with ZP1-R9 (5 μM) or DA-ZP1-R9 (2.5 μM) and the indicated organelle stain. Top, ZP1-R9: (a) Differential interference contrast (DIC) image, (b) signal from ZP1-R9, (c) signal from LysoTracker Red, (d) overlay of (b) and (c). Pearson's r=0.42±0.16 (n=8). Bottom, DA-ZP1-R9: (e) DIC, (f) signal from DA-ZP1-R9 after treatment with 25 μM ZnPT, (g) signal from Hoechst 33258, (h) overlay of (f) and (g). Scale bar=25 μm.
FIG. 29 depicts deconvoluted fluorescence microscopy images of live HeLa cells pretreated with 1 μM DA-ZP1-R9 and 100 nM Dextran Red. (a) Differential interference contrast (DIC), (b) signal from DA-ZP1-R9 after addition of 25 μM ZnPT (c) signal from Dextran Red, (d) overlay of (b) and (c). Pearson's r=0.55±0.12 (n=11). Scale bar=25 μm.
FIG. 31 depicts deconvoluted fluorescence microscopy images of ZP1-(Fxr)3 and DA-ZP1-r(Fxr)3 in live HeLa cells. Top, cells pretreated with medium containing 2.5 μM of ZP1-(Fxr)3: (a) Differential interference contrast (DIC) image, (b) signal from ZP1-(Fxr)3, (c) signal from Dextran Red, (d) overlay of (b) and (c). Pearson's r=0.71±0.07. Bottom, cells pretreated with 1 μM DA-ZP1-r(Fxr)3: (e) DIC, (f) signal from DA-ZP1-r(Fx)3 after treatment with 25 μM ZnPT, (g) signal from MitoTracker Red, (h) overlay of (f) and (g). Pearson's r=0.41±0.09. Scale bar=25 μm.
FIG. 33 depicts deconvoluted fluorescence microscopy images of DCF-r(Fxr)3 and DA-DCF-r(Fxr)3 in live HeLa cells. Top, cells pretreated with 5 μM DCF-r(Fxr)3 and 500 nM MitoTracker Red for 30 min. (a) differential contrast image (DIC), (b) signal from DCF-r(Fxr)3, (c) signal from MitoTracker Red. Bottom, cells pretreated with 5 μM DA-DCF-r(Fxr)3 and 500 nM MitoTracker Red for 30 min. (d) DIC, (e) signal from DCF-r(Fxr)3, (f) signal from MitoTracker Red. The global Pearson's r=0.57±0.16 (n=37). Cells with high levels of DA-DCF-r(Fxr)3 (e, red outline) have a higher Pearson's r=0.83±0.08 (n=10). Scale bar=25 μm.
We used HeLa cells as a model system to evaluate the ability of DA-ZP1-TPP to target mitochondria and respond to changes in intracellular zinc levels. […] Over a two-hour period, the fluorescence intensity from the sensor remained constant, implying that the acetylated form is stable against intracellular esterases (FIG. 24e). […] Addition of 100 μM TPEN attenuated the fluorescence signal by ˜2.4-fold (FIG. 24f). […]

[4] = Deacetylation kinetics monitored by UV-vis absorbance (metal-mediated and uncatalyzed hydrolysis); assay type: physicochemical; conditions: analogous conditions, EDTA or ZnCl2
Description: (§1) FIG. 23 depicts kinetic traces for the deacetylation of DA-ZP1-TPP. The half-life for deacetylation of a 2.75 μM solution of DA-ZP1-TPP, at 37° C. in 50 mM PIPES buffer (pH 7) and 100 mM KCl, was measured in the presence of 125 μM ZnCl2 (+Zn), 250 μM EDTA (−Zn), or 1.25 units of porcine liver esterase (Esterase). The change in absorbance at 520 nm (EDTA and esterase) or 510 nm (ZnCl2) was used to monitor the reaction.
FIG. 26 depicts in vitro characterization of DA-ZP1-A3. (a) UV-vis and (b) fluorescence spectra of a 5 μM solution of DA-ZP1-A3 in buffer (50 mM PIPES, 100 mM KCl; pH 7). Spectra were acquired initially, upon addition of 100 μM ZnCl2, and again after addition of 200 μM EDTA. (c) Time-dependent change in the normalized absorbance of a ca. 5 μM solution DA-ZP1-A3 at 37° C. in buffer (50 mM PIPES, 100 mM KCl; pH 7) in the presence of 100 μM ZnCl2 (λabs=510 nm) or EDTA (λabs=520 nm). (d) Integrated fluorescence intensity of a 1 μM solution of ZP1-A3 (circles) or DA-ZP1-A3 (squares) as a function of pH. […]
DA-ZP1-TPP has a zinc-induced fluorescence response and is relatively stable to uncatalyzed hydrolysis and esterase activity. […] Other late 3d-block transition metal ions, such as Co(II) and Cu(II), can coordinate to DA-ZP1-TPP but are generally not available in appreciable chelatable quantities within the cell. […]

[5] = tested on: porcine liver esterase; test: Deacetylation by porcine liver esterase (UV-vis absorbance); assay type: in vitro ADME; conditions: analogous conditions, porcine liver esterase
Description: as §1
DA-ZP1-TPP has a zinc-induced fluorescence response and is relatively stable to uncatalyzed hydrolysis and esterase activity. […] Other late 3d-block transition metal ions, such as Co(II) and Cu(II), can coordinate to DA-ZP1-TPP but are generally not available in appreciable chelatable quantities within the cell. In addition to monitoring selectivity in the fluorescence response, we used UV-vis spectroscopy to investigate the rate and zinc-specificity of metal-mediated ester hydrolysis. DA-ZP1-TPP deacetylation results in opening of the lactone ring and restoration of conjugation across the xanthene ring. By monitoring the absorbance of the xanthene it system, we could interrogate deacetylation kinetics in a manner that is independent of the fluorescence response. […] To determine whether ester hydrolysis depends on the metal-binding core of DA-ZP1-TPP, we measured the deacetylation kinetics of fluorescein diacetate (DA-FL) under analogous conditions. […]

| SMILES | log P [1] | Charge of the predominate species in solution [2] | Localization [3] | stability to hydrolysis and zinc-mediated deacetylation [4] | response to esterase (deacetylation) [5] | logP ([1]; octanol/aqueous buffer) |
| --- | --- | --- | --- | --- | --- | --- |
| O=C(NCC[P+](c1ccccc1)(c1ccccc1)c1ccccc1)c1cc2cc3c4c(c2oc1=O)CCCN4CCC3 [C343-TPP] | 0.72 ± 0.05 | +1 | Mitochondria |  |  |  |
| CC(=O)Oc1ccc2c(c1)Oc1cc(OC(C)=O)ccc1C21OC(=O)c2ccccc21 [DA-FL, fluorescein diacetate, reference compound] |  |  |  | relatively stable to hydrolysis and zinc-mediated deacetylation | responds rapidly to esterase |  |
| CN1/C(=C/C=C/c2n(Cc3ccc(CCl)cc3)c3cc(Cl)c(Cl)cc3[n+]2Cc2ccc(CCl)cc2)Oc2ccccc21 [Mitotracker Green, reference compound] |  | +1 | Mitochondria |  |  | 0.56 ± 0.02 |
| ClCc1ccc(C2=c3cc4c5c(c3Oc3c2cc2c6c3CCCN6CCC2)CCC[N+]=5CCC4)cc1.[Cl-] [Mitotracker Red, reference compound] | 1.15 ± 0.04 | +1 | Mitochondria |  |  |  |
